From patent US9580513B2, “VHZ for diagnosis and treatment of cancers” (AGENCY FOR SCIENCE, TECHNOLOGY AND RESEARCH (A*STAR), priority 2008, dated 2017)

Assays:
VHZ-GST = molecular target: T1, VHZ-GST (Homo sapiens, UniProt Q9BVJ7); test: Tyrosine phosphatase assay (ENZCHEK kit, fluorogenic substrate); format: biochemical; conditions: 10 μM sodium orthovanadate added to the reaction; 0.675 picomoles VHZ-GST
T1 construct: made in house
T1 sequence (Q9BVJ7 1-150): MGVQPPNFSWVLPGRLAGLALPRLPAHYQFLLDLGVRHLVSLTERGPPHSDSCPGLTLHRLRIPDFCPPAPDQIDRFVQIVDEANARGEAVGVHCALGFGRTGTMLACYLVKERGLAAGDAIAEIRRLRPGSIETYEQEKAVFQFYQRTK
Experimental: FIG. 3A. We test each protein (0.675 picomoles) for its PTPase activity.
The ENZCHEK™ kit (Invitrogen, R22065) is used. As per the manufacturer's protocol, the fluorogenic substrate is reconstituted in the assay wells with buffer; the desired potential PTPases (0.675 picomole for each protein: VHZ-GST, VHZ-GST+Phosphatase inhibitor, VHZ(C95S)-GST, and control GST) are added to the wells and incubated 30 min or 90 min respectively. The fluorescence is then quantified using a Gemini XPS microplate spectrofluorometer (Molecular Devices). Fluorescence is measured at 10 minute intervals at the excitation and emission wavelengths of 358 and 452 nm, respectively. The phosphatase inhibitor sodium orthovanadate (10 μM) is used in the assay as a negative control.
The PTPase activities of VHZ-GST, indicated by increasing blue fluorescence (excitation/emission maxima ˜358/452 nm), are abolished either by mutation of Cys 95 to Ser or by adding phosphatase inhibitor (sodium orthovanadate) into the assay (FIG. 3A, Panel A).

[1] = test system: HCT116 colon cancer cells that express VHZ; test: Formation of tumours by HCT116 colon cancer cells injected via the tail vein of nude mice; format: in vivo; conditions: 1×10^6 HCT116 cells via tail vein on day 1; chimeric mAb into tail vein from day 3, then two administrations weekly; compared with PBS (untreated)
From the text: FIG. 15B. Either PBS (untreated) or chimeric mAb (treated) is administrated into tail vein starting the first treatment on day 3; followed by two administrations weekly. Experiment periods: Top two animals starting 11 Feb.-2 Apr. 2009 bottom two animals starting 11 Feb.-13 Apr. 2009.
All animal studies have been approved by the Institutional Review Board of the IMCB. We follow strictly rules and policies of the Animal Facility Center of The Agency for Science, Technology and Research (A* STAR), Singapore. Nine-week old nude mice (Jackson Labs, USA) are used.
By western blot we confirm that HCT116 colon cancer cell line is VHZ positive comparing with MDCK cell line. 1×10^6 HCT116 cancer cells were injected into the circulation of nude mice via the tail vein on day 1.
Either PBS (untreated) or chimeric mAb (treated) was administrated into tail vein starting the first treatment on day 3; followed by two administrations weekly. Experiment periods: Top two animals starting 11 Feb.-2 Apr. 2009 bottom two animals starting 11 Feb.-13 Apr. 2009.

For `[Na+].[Na+].[Na+].[O]=[V]([O-])([O-])[O-]` [sodium orthovanadate], the “PTPase activity of VHZ” value (VHZ-GST) was “completely abolished”.

B1: VHZ human/mouse Chimeric mAb (Clone #209): mouse variable regions of hybridoma clone #209 (SEQ ID NO: 4 and 5) joined with human IgG1 constant region (antibody, listed as Mus musculus, V domains shown)
VH: LVDMDSRLNLVFLVLILKGVQCDVQLVESGGGLVQPGGSRKLSCAASGFTFSSFGMHWVRQAPEKGLEWVAYISSGSSTIYYADTVKGRFTISRDNPKNTLFLQMTSLRSEDTAMYYCARWQTARATRGYAMDYWGQGTSVTVSS
VL: VMTQSHKFMSTSVGDRVSITCKASQDVNTAVAWYQQKPGQSPKLLIYSASYRFTGVPDLFTGSGSGTDFTFTINSVQAEDLAVYYCQQHYSSPWTFGGGTKLEIKRADAAPTVSIFHHPVSLG
modifications: human IgG1 constant regions lacking entries
B1 was tested, and the “formation of tumours by HCT116 colon cancer cells” value [1] was “effectively inhibits the formation of tumours”.
